Test results published in patent US20110053770A1, “SUBSTITUTED AMINOTHIAZOLES AND THEIR USE AS FUNGICIDES” (BAYER CROPSCIENCE AG, priority 2009, published 2011).
Marks after values point to notes of the source that are not given here.

Assay: logP by HPLC on reversed-phase columns (C 18), EEC directive 79/831 Annex V.A8
Type: physicochemical
Conditions: for log P (*) / log P (**): acidic range; for log P (*): pH 2.3, 0.1% aqueous phosphoric acid and acetonitrile; for log P (**) / log P (***): LC-MS; for log P (**): pH 2.7, 0.1% aqueous formic acid and acetonitrile; for log P (***): neutral range, pH 7.8, 0.001 molar aqueous ammonium bicarbonate and acetonitrile
Method: Calibration was carried out using unbranched alkan-2-ones (having from 3 to 16 carbon atoms) with known logP values (the logP values were determined by the retention times using linear interpolation between two successive alkanones).

log P (*)	log P (**)	log P (***)	Structure (SMILES)
–	2.43	5.35	Clc1cc(Cl)cc(Cc2ccccc2-c2csc(N=C3CCCCN3)n2)c1 [compound 89, 4-[2-(3,5-dichlorobenzyl)phenyl]-N-[(2E/Z)-piperidin-2-ylidene]-1,3-thiazole-2-amine]
–	1.7**	–	Clc1ccc(-c2csc(N=C3CCCCN3)n2)cc1 [compound 2, 4-(4-chlorophenyl)-N-[(2E/Z)-piperidin-2-ylidene]-1,3-thiazole-2-amine]
1.39*	–	–	Clc1ccccc1Cc1csc(N=C2CCCCN2)n1 [compound 69, 4-(2-chlorobenzyl)-N-[(2E/Z)-piperidin-2-ylidene]-1,3-thiazole-2-amine]
–	1.58	3.25	Brc1ccccc1-c1csc(N=C2CCCCN2)n1 [compound 48, 4-(2-bromophenyl)-N-[(2E/Z)-piperidin-2-ylidene]-1,3-thiazole-2-amine]
1.76	1.76	3.25	FC(F)(F)c1ccccc1-c1csc(N=C2CCCCN2)n1 [compound 21, N-[(2E/Z)-piperidin-2-ylidene]-4-[2-(trifluoromethyl)phenyl]-1,3-thiazole-2-amine]
0.29	–	2.13	Cc1cccc(-c2csc(N=C3CCCCN3)n2)n1 [compound 62, 4-(6-methylpyridin-2-yl)-N-[(2E/Z)-piperidin-2-ylidene]-1,3-thiazole-2-amine]
1.63	1.63	3.19	Clc1ccccc1-c1csc(N=C2CCCCN2)n1 [compound 20, 4-(2-chlorophenyl)-N-[(2E/Z)-piperidin-2-ylidene]-1,3-thiazole-2-amine]
–	1.95	4.19	Fc1ccc(Cc2ccccc2-c2csc(N=C3CCCCN3)n2)cc1 [compound 90, 4-[2-(4-fluorobenzyl)phenyl]-N-[(2E/Z)-piperidin-2-ylidene]-1,3-thiazole-2-amine]
1.58	–	3.36	Clc1cccc(Cc2csc(N=C3CCCCN3)n2)c1 [compound 70, 4-(3-chlorobenzyl)-N-[(2E/Z)-piperidin-2-ylidene]-1,3-thiazole-2-amine]
0.94	–	2.38	Clc1ccc(-c2csc(N=C3CCCCN3)n2)cn1 [compound 63, 4-(6-chloropyridin-3-yl)-N-[(2E/Z)-piperidin-2-ylidene]-1,3-thiazole-2-amine]
–	1.53**	–	Brc1cccc(-c2csc(N=C3CCCCN3)n2)c1 [compound 106, 4-(3-bromophenyl)-N-[(2E/Z)-piperidin-2-ylidene]-1,3-thiazole-2-amine]
–	2.16	4.36	Clc1cccc(Cl)c1Cc1ccccc1-c1csc(N=C2CCCCN2)n1 [compound 91, 4-[2-(2,6-dichlorobenzyl)phenyl]-N-[(2E/Z)-piperidin-2-ylidene]-1,3-thiazole-2-amine]
–	2.17	4.7	Clc1ccc(Cc2ccccc2-c2csc(N=C3CCCCN3)n2)cc1 [compound 93, 4-[2-(4-chlorobenzyl)-phenyl]-N-[(2E/Z)-piperidin-2-ylidene]-1,3-thiazole-2-amine]
1.77	1.77	3.35	CCOc1ccccc1-c1csc(N=C2CCCCN2)n1 [compound 23, 4-(2-ethoxyphenyl)-N-[(2E/Z)-piperidin-2-ylidene]-1,3-thiazole-2-amine]
2.36	–	5.07	Clc1ccc(Cc2ccccc2-c2csc(N=C3CCCCN3)n2)cc1Cl [compound 92, 4-[2-(3,4-dichloro-benzyl)phenyl]-N-[(2E/Z)-piperidin-2-ylidene]-1,3-thiazole-2-amine]
1.58	1.58	3.21	Fc1cccc(-c2csc(N=C3CCCCN3)n2)c1F [compound 25, 4-(2,3-difluorophenyl)-N-[(2E/Z)-piperidin-2-ylidene]-1,3-thiazole-2-amine]
–	1.37**	–	Clc1cccc(-c2csc(N=C3CCCCN3)n2)c1 [compound 59, 4-(3-chlorophenyl)-N-[(2E/Z)-piperidin-2-ylidene]-1,3-thiazole-2-amine]

Continued, compound first:

Structure (SMILES)	log P (*)	log P (**)	log P (***)
Fc1ccc(Oc2ccccc2-c2csc(N=C3CCCCN3)n2)cc1 [compound 75, 4-[2-(4-fluorophenoxy)phenyl]-N-[(2E/Z)-piperidin-2-ylidene]-1,3-thiazole-2-amine]	1.87*	–	–
Fc1ccc(Oc2ccccc2-c2csc(N=C3CCCN3)n2)c(F)c1 [compound 102, 4-[2-(2,4-difluorophenoxy)phenyl]-N-[(2E/Z)-pyrrolidin-2-ylidene]-1,3-thiazole-2-amine]	1.98	–	3.55
FC(F)Oc1ccc(-c2csc(N=C3CCCCN3)n2)cc1 [compound 49, 4-[4-(difluoromethoxy)phenyl]-N-[(2E/Z)-piperidin-2-ylidene]-1,3-thiazole-2-amine]	–	1.44**	–
Fc1cccc(Oc2ccccc2-c2csc(N=C3CCCCN3)n2)c1 [compound 83, 4-[2-(3-fluorophenoxy)phenyl]-N-[(2E/Z)-piperidin-2-ylidene]-1,3-thiazole-2-amine]	1.95*	–	–
CC(=O)N1CCCCC1=Nc1nc(-c2ccc(Cl)cc2)c(C)s1 [compound 42, 1-[(2E/Z)-2-{[4-(4-chlorophenyl)-5-methyl-1,3-thiazol-2-yl]imino}piperidin-1-yl]ethanone]	3.92	3.92	3.96
CC(=O)N1CCCCC1=Nc1nc(-c2ccc3c(c2)OCO3)cs1 [compound 39, 1-[(2E/Z)-2-{[4-(1,3-benzodioxol-5-yl)-1,3-thiazol-2-yl]imino}piperidin-1-yl]ethanone]	2.96	2.96	2.95
Brc1cccc(Oc2ccccc2-c2csc(N=C3CCCCN3)n2)c1 [compound 87, 4-[2-(3-bromophenoxy)phenyl]-N-[(2E/Z)-piperidin-2-ylidene]-1,3-thiazole-2-amine]	2.19	–	4.71
Fc1ccc(F)c(-c2csc(N=C3CCCCN3)n2)c1 [compound 19, 4-(2,5-difluorophenyl)-N-[(2E/Z)-piperidin-2-ylidene]-1,3-thiazole-2-amine]	1.58	1.58	3.16
Fc1c(-c2csc(N=C3CCCCN3)n2)cccc1C(F)(F)F [compound 26, 4-[2-fluoro-3-(trifluoromethyl)phenyl]-N-[(2E/Z)-piperidin-2-ylidene]-1,3-thiazole-2-amine]	1.84	1.84	3.78
Fc1ccc(Oc2ccc(-c3csc(N=C4CCCN4)n3)cc2)c(F)c1 [compound 97, 4-[4-(2,4-difluorophenoxy)phenyl]-N-[(2E/Z)-pyrrolidin-2-ylidene]-1,3-thiazole-2-amine]	2.03	–	3.59
c1ccc(Oc2ccccc2-c2csc(N=C3CCCN3)n2)cc1 [compound 98, 4-(2-phenoxyphenyl)-N-[(2E/Z)-pyrrolidin-2-ylidene]-1,3-thiazole-2-amine]	1.92	2.05	3.54
FC(F)(F)c1cccc(-c2csc(N=C3CCCCN3)n2)c1 [compound 105, N-[(2E/Z)-piperidin-2-ylidene]-4-[3-(trifluoromethyl)phenyl]-1,3-thiazole-2-amine]	–	1.75**	–
CC(C)(C)c1cc(Oc2ccccc2-c2csc(N=C3CCCCN3)n2)ccc1Cl [compound 12, 4-[2-(3-tert-butyl-4-chlorophenoxy)phenyl]-N-[(2E/Z)-piperidin-2-ylidene]-1,3-thiazole-2-amine]	2.92	2.92	5.96
Cc1cccc(-c2cccc(-c3csc(N=C4CCCCN4)n3)c2)c1 [compound 71, 4-(3′-methylbiphenyl-3-yl)-N-[(2E/Z)-piperidin-2-ylidene]-1,3-thiazole-2-amine]	2.12	–	4.48
Clc1cc(Cl)cc(-c2csc(N=C3CCCCN3)n2)c1 [compound 55, 4-(3,5-dichlorophenyl)-N-[(2E/Z)-piperidin-2-ylidene]-1,3-thiazole-2-amine]	1.59	–	4.21
CC(=O)N1CCCCC1=Nc1nc(-c2ccc(Cl)cc2)cs1 [compound 34, 1-[(2E/Z)-2-{[4-(4-chlorophenyl)-1,3-thiazol-2-yl]imino}piperidin-1-yl]ethanone]	3.78**; 3.78***; 3.78*	3.78**; 3.78***; 3.78*	3.78**; 3.78***; 3.78*
Cc1ccc(Oc2ccccc2-c2csc(N=C3CCCCN3)n2)c(C)c1 [compound 1, 4-[2-(2,4-dimethylphenoxy)phenyl]-N-[(2E/Z)-piperidin-2-ylidene]-1,3-thiazole-2-amine]	–	2.66	4.9
COc1ccc(-c2csc(N=C3CCCCN3)n2)cc1OC [compound 27, 4-(3,4-dimethoxyphenyl)-N-[(2E/Z)-piperidin-2-ylidene]-1,3-thiazole-2-amine]	1.35	1.35	2.36
FC(F)(F)c1cc(Oc2ccccc2-c2csc(N=C3CCCCN3)n2)ccc1Cl [compound 14, 4-{2-[4-chloro-3-(trifluoromethyl)phenoxy]phenyl}-N-[(2E/Z)-piperidin-2-ylidene]-1,3-thiazole-2-amine]	2.58	2.58	4.9
c1ccc(-c2ccccc2-c2csc(N=C3CCCCN3)n2)cc1 [compound 64, 4-(biphenyl-2-yl)-N-[(2E/Z)-piperidin-2-ylidene]-1,3-thiazole-2-amine]	–	1.82**	–
Fc1ccc(Oc2ccccc2-c2csc(N=C3CCCCN3)n2)cc1F [compound 78, 4-[2-(3,4-difluorophenoxy)phenyl]-N-[(2E/Z)-piperidin-2-ylidene]-1,3-thiazole-2-amine]	1.83	–	4.18
